Experimental data: ChEMBL document CHEMBL1201862, “PubChem BioAssay data set” (2004)
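Where inhibition never reached the appropriate level, the endpoint shown equals the highest concentration tested. Otherwise, values were interpolated linearly from a five-concentration, 48-hour dose response in 96-well plates. GI50 is the concentration that inhibits growth by half.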 Active and inactive are the calls of the source. Cut-off read from the data, not from the text of the source: active = GI50 up to about 1.1 µM and inactive = higher.

What was measured:
Experiment in all cases: inhibition of tumour cell growth, NCI panel, 48 h
SK-OV-3 = system: SK-OV-3
UO-31 = system: UO-31
A498 = system: A498
HOP-62 = system: HOP-62
NCI-H23 = system: NCI-H23
NCI-H522 = system: NCI-H522
Malme-3M = system: Malme-3M
IGROV-1 = system: IGROV-1
CCRF-CEM = system: CCRF-CEM
HCC 2998 = system: HCC 2998
NCI-H226 = system: NCI-H226
SF-539 = system: SF-539
EKVX = system: EKVX
OVCAR-3 = system: OVCAR-3
KM12 = system: KM12
A549 = system: A549
OVCAR-8 = system: OVCAR-8
HCT-15 = system: HCT-15
LOX IMVI = system: LOX IMVI
NCI/ADR-RES = system: NCI/ADR-RES

Compound	GI50 (SK-OV-3)	GI50 (UO-31)	GI50 (A498)	GI50 (HOP-62)	GI50 (NCI-H23)	GI50 (NCI-H522)	GI50 (Malme-3M)	GI50 (IGROV-1)	GI50 (CCRF-CEM)	GI50 (HCC 2998)	GI50 (NCI-H226)	GI50 (SF-539)	GI50 (EKVX)	GI50 (OVCAR-3)	GI50 (KM12)	GI50 (A549)	GI50 (OVCAR-8)	GI50 (HCT-15) [µM]	GI50 (LOX IMVI)	GI50 (NCI/ADR-RES)
Cc1ccc2c(C)c3ccc4ccccc4c3c[n+]2c1.[O-][Cl+3]([O-])([O-])[O-]	17.7 µM (inactive)	33.6 µM (inactive)	60 µM (inactive)	13.8 µM (inactive)	14.6 µM (inactive)	11.2 µM (inactive)	2.88 µM (inactive)	31.4 µM (inactive)	11.1 µM (inactive)	12.9 µM (inactive)	5.81 µM (inactive)	11.5 µM (inactive)	13.7 µM (inactive)	7.35 µM (inactive)	2.94 µM (inactive)	16.3 µM (inactive)	10 µM (inactive)	52.1	34.6 µM (inactive)	–
COc1cccc(C2c3cc4c(cc3OC(NNS(=O)(=O)c3ccc(C)cc3)C2C)OCO4)c1OC (stereo not given)	2.59 µM (inactive)	2.63 µM (inactive)	2.41 µM (inactive)	2.84 µM (inactive)	4.06 µM (inactive)	1.88 µM (inactive)	3.61 µM (inactive)	2.52 µM (inactive)	2.03 µM (inactive)	5.36 µM (inactive)	2.56 µM (inactive)	2.97 µM (inactive)	3.18 µM (inactive)	1.75 µM (inactive)	3.3 µM (inactive)	2.62 µM (inactive)	27.4 µM (inactive)	2.65	2.08 µM (inactive)	–
O=C1c2ccccc2C(=O)c2sc(Nc3ccc([N+](=O)[O-])cc3)nc21	21.7 µM (inactive)	3.87 µM (inactive)	17.2 µM (inactive)	13 µM (inactive)	2.67 µM (inactive)	2.55 µM (inactive)	6.25 µM (inactive)	12.5 µM (inactive)	1.97 µM (inactive)	16 µM (inactive)	17.2 µM (inactive)	7.91 µM (inactive)	14.7 µM (inactive)	2.24 µM (inactive)	9.08 µM (inactive)	17.5 µM (inactive)	4.66 µM (inactive)	5.32	2.03 µM (inactive)	–
COC(=O)Cc1cc(=O)oc2c1C(=O)CCC2	> 100 µM (inactive)	59.2 µM (inactive)	> 100 µM (inactive)	> 100 µM (inactive)	> 100 µM (inactive)	> 100 µM (inactive)	> 100 µM (inactive)	> 100 µM (inactive)	> 100 µM (inactive)	> 100 µM (inactive)	> 100 µM (inactive)	> 100 µM (inactive)	> 100 µM (inactive)	> 100 µM (inactive)	> 100 µM (inactive)	> 100 µM (inactive)	> 100 µM (inactive)	> 100	> 100 µM (inactive)	–
COc1cc(NCc2ccc3oc(=O)c(-c4ccccc4)nc3c2)cc(OC)c1OC	> 10 µM (inactive)	> 10 µM (inactive)	–	> 10 µM (inactive)	> 10 µM (inactive)	> 10 µM (inactive)	–	> 10 µM (inactive)	> 10 µM (inactive)	> 10 µM (inactive)	> 10 µM (inactive)	> 10 µM (inactive)	> 10 µM (inactive)	> 10 µM (inactive)	> 10 µM (inactive)	> 10 µM (inactive)	> 10 µM (inactive)	> 10	> 10 µM (inactive)	> 10 µM (inactive)
Clc1ccc(OCc2nnc3sc(SSc4nn5c(COc6ccc(Cl)cc6)nnc5s4)nn23)cc1	> 100 µM (inactive)	52 µM (inactive)	–	> 100 µM (inactive)	> 100 µM (inactive)	63.1 µM (inactive)	> 100 µM (inactive)	> 100 µM (inactive)	–	–	> 100 µM (inactive)	> 100 µM (inactive)	66.5 µM (inactive)	–	> 100 µM (inactive)	> 100 µM (inactive)	> 100 µM (inactive)	–	> 100 µM (inactive)	> 100 µM (inactive)
CC1=C(C(=O)Nc2cccc(C(F)(F)F)c2)C(c2ccc(O)cc2)C(C(=O)Nc2cccc(C(F)(F)F)c2)=C(C)N1	19.1 µM (inactive)	12.7 µM (inactive)	17.5 µM (inactive)	19.5 µM (inactive)	16.1 µM (inactive)	15.5 µM (inactive)	25.8 µM (inactive)	15.6 µM (inactive)	13.6 µM (inactive)	17.3 µM (inactive)	17.3 µM (inactive)	26.5 µM (inactive)	18.1 µM (inactive)	15.7 µM (inactive)	15.8 µM (inactive)	24.4 µM (inactive)	23.2 µM (inactive)	–	15.6 µM (inactive)	–
CC1(C)CC(C#Cc2ccccc2)CC(C)(C)N1O	27.1 µM (inactive)	12.2 µM (inactive)	–	16.4 µM (inactive)	15.7 µM (inactive)	–	16.8 µM (inactive)	29.9 µM (inactive)	39.8 µM (inactive)	16.3 µM (inactive)	20.9 µM (inactive)	20.6 µM (inactive)	23.6 µM (inactive)	15.9 µM (inactive)	17.3 µM (inactive)	22.5 µM (inactive)	20.7 µM (inactive)	14.9	15.5 µM (inactive)	23.9 µM (inactive)
